# Assay results reported in article PMC11510329, “Molecular Networking, Docking, and Biological Evaluation of Licarin A from Myristica fragrans as a Potential Cancer Chemopreventive Agent” (Molecules, 2024).
# Experiments:
# [1] = system: DU-145 prostate cancer cells; test: Cell viability crystal violet assay; assay type: cell-based, Homo sapiens; conditions: rocaglamide at concentrations higher than 6 μM
# Experimental: The cell viability of DU-145 prostate cancer cells was evaluated after treatment with 1, 2, and the positive control rocaglamide using the protocol from a Phospho-NF-kappaBp65 (S468 + S536) and Total In-Cell ELISA Kit (ab207482) (Abcam Inc., Waltham, MA, USA), after initial PhosphoNF-κBp65 translocation steps (Section 4.11).
# [2] = SRB cell cytotoxicity assay; assay type: cell-based, Homo sapiens; conditions: human, DU-145 prostate cancer cells; DU-145; Supplementary Figure S7; read-out: cytotoxic concentration in vitro (IC50)
# Experimental: (§1) The antiproliferative effects of 1, the chemopreventive control 2, and the positive control paclitaxel were measured using a sulforhodamine B (SRB) cytotoxicity assay. Briefly, DU-145 prostate cancer cells (5 × 10^4 cells/well) were seeded in a 96-well plate overnight. Then, the cells were treated at different concentrations ranging from 0 to 150 μM with each test compound for 24, 48, and 72 h (Supplementary Figure S7). After being treated, the cells were incubated with cold trichloroacetic acid (20%, 30 min), washed with tap water, stained with SRB (0.4%, 30 min), and washed subsequently with acetic acid (1%). Finally, the unbound dye was solubilized using 200 μL of Tris-base (10 mM) and the absorbance read at 515 nm using a FLUOstar Optima microplate reader (BMG Labtech Inc., Durham, NC, USA). The percent inhibition was determined by using the formula provided in the prior publication.
# [3] = system: DU-145 prostate cancer cells; test: SRB cell cytotoxicity assay; assay type: cell-based, Homo sapiens; conditions: DU-145 human prostate cancer cells
# Experimental: as §1
# [4] = system: Hepa1c1c7 mouse hepatoma cells; test: Cell oxidative stress real-time dose–response assay (ROS, DCFH-DA); assay type: cell-based
# Experimental: A reactive oxygen species (ROS) assay was performed following a previously described procedure. The generated intracellular levels of ROS were measured using the fluorescent probe 2′,7′-dichlorodihydrofluorescein diacetate (DCFH-DA). Hepa1c1c7 mouse hepatoma cells were seeded in a 96-well plate, treated with 1, 2, or the positive control rocaglamide, followed by 5 h incubation at 37 °C with 5% CO2. Subsequently, cells were incubated with H2O2 (1.25 mM) and FeSO4 for 30 min at 37 °C. Later, the fluorescent probe DCFH-DA was added to determine intracellular ROS. Fluorescence was measured using a FLUOstar Optima fluorescence plate reader (BMG Labtech Inc., Durham, NC, USA) at an excitation wavelength of 485 nm and emission wavelength of 530 nm. All treatments performed in triplicate were representative of at least two different experiments.
# [5] = system: phosphoNF-κBp65 in DU-145 prostate cancer cells; test: PhosphoNF-κBp65 assay (In-Cell ELISA); assay type: cell-based, Homo sapiens
# Experimental: PhosphoNF-κBP65 phosphorylation levels were evaluated using the protocol from an Abcam Phospho-NF-kappaBp65 ([…] + […]) + Total In-Cell ELISA Kit (ab207482) (Abcam Inc., Waltham, MA, USA). The effects of 1, the natural product chemopreventive positive control 2, and a rocaglamide positive control in the PhosphoNF-κBp65 assay activity were measured using a FLUOstar Optima plate reader. DU-145 or Hepa1c1c7 cells (5 × 10^4 cells/well) were seeded in a white 96-well plate and treated (0-150 μM) for 5 h. Afterwards, luminescence was measured using a FLUOstar Optima plate reader.
# zebrafish (Danio rerio) = test: Toxicity assay in zebrafish; conditions: for morphological changes / developmental abnormalities: tamoxifen 50 μM at 48 h, 1 100 μM at 48 h, 2 100 μM at 24 h
# Experimental: Animals were provided by the Department of Neuroscience at The Ohio State University (OSU) (OSU IACUC-approved animal protocol number 2014A00000006-R1-AR1). Zebrafish embryos were housed in aquaculture water at 28 °C with a 14 h/10 h light/dark cycle. After 24 h post fertilization (hpf), groups of random embryos were exposed to different concentrations (0, 50, or 100 μM, n = 25) for 24 and 48 h. Then, images of the zebrafish were taken using an Axiovert 40 CFL Zeiss microscope and ProgRes C10 plus camera. Morphological changes in zebrafish development were determined and recorded.
# [6] = system: HT-29 human colon cancer cells; conditions: nanomolar range; cited from earlier work
compound,measurement,setting,value
"COc1ccc([C@@]23Oc4cc(OC)cc(OC)c4[C@]2(O)[C@H](O)[C@H](C(=O)N(C)C)[C@H]3c2ccccc2)cc1 [Rocaglamide, reference compound]",cell viability (crystal violet),[1],maintained the same level of cell viability
"C/C=C/c1cc(OC)c2c(c1)[C@H](C)[C@@H](c1ccc(O)c(OC)c1)O2 [compound 1, licarin A]",IC50,[2],100 µM
same,growth inhibitory activity,[3],did not produce any discernible growth inhibitory activity
same,cell viability (crystal violet),[1],"remained alive and proliferated, but in a controlled manner"
same,effective concentration for oxidative control,[4]; Hepa1c1c7,48 nM
same,effective concentration for inducing NF-κB phosphorylation,[5],9.6 nM
same,% survival,"zebrafish (Danio rerio); 48 h exposure, tamoxifen 50 μM, 1 and 2 100 μM, mean ± SEM",100%
same,morphological changes / developmental abnormalities,zebrafish (Danio rerio),lack of morphological changes
"O=C(/C=C/c1ccc(O)cc1)c1ccc(O)cc1O [compound 2, Isoliquiritigenin, reference compound]",duration of reduction in cellular stress (time until activity degrades),"[4]; 48 nM, assay duration 60 min",30 min
same,% of hatching,"zebrafish (Danio rerio); 24 h exposure, tamoxifen 50 μM, 1 and 2 100 μM, mean ± SEM",100%
same,morphological changes / developmental abnormalities,zebrafish (Danio rerio),curved spines or shortened tails
C/C=C/c1cc(OC)c2c(c1)[C@@H](C)[C@H](c1cc(OC)c(OC)c(OC)c1)O2 [licarin C],cytotoxicity,[6],potently cytotoxic
